Laboratory results reported in patent US12508280B2, “Formulations for improving gut health” (DSM IP ASSETS B.V., priority 2018, dated 2025).

Columns and labels:
Format in all cases: cell-based, human
[1] = tested on: fecal inoculum of two healthy adults; test: Short-term colonic incubations, SCFA production (second set); settings: 48 h fermentation
Procedure: In a second set of in vitro experiments, at the start of the short-term colonic incubations, the test ingredients were added to nutritional medium containing basal nutrients present in the colon (e.g. host-derived glycans such as mucin). Three doses were tested per product. The nutritional medium used for this particular project was again supplemented with NaCl, MgSO4, CaCl2, hemin and bile salts, and with carbon sources glucose, starch and cellobiose. A blank, containing the same nutritional medium as that used for the product incubations, but without product addition, was included for each donor. In doing so, an assessment can be made of the background activity of the bacterial community, which results from fermentation of compounds in the nutritional medium. As a source of the colonic microbiota a fecal inoculum of two healthy adults was added. Incubations were performed for 48 h at 37'C, under shaking (90 rpm) and anaerobic conditions and protected from light. […] Each compound was tested in three different concentrations; an overview is given in Table 2, below: Short chain fatty acids (SCFA) are an assessment of the microbial carbohydrate metabolism (acetate, propionate and butyrate) or protein metabolism (branched SCFA) and can be compared to typical fermentation patterns for normal GI microbiota. Samples for SCFA analysis were analyzed after 0, 6, 24 and 48 h of incubation for both set of in vitro experiments, above. SCFA were extracted from the samples with diethyl ether, after the addition of 2-methyl hexanoic acid as an internal standard. […], Belgium), a flame ionization detector and a split injector. The injection volume was […] and the temperature profile was set from 110 to 160° C., with a temperature increase of 6° C. min-1. […] The production of unbranched and branched SCFA was calculated by summing the molar concentrations of acetate, propionate, butyrate, valerate and caproate, and summing isobutyrate, isovalerate and isocaproate molar concentrations, respectively. The total SCFA production was defined as the sum of unbranched and branched SCFA.

[2] = tested on: colonic microbiota (fecal inoculum of two healthy adults); test: 16S-targeted Illumina sequencing with flow cytometry, taxa abundance (second set); settings: 24 h fermentation
Procedure: (§1) In a second set of in vitro experiments, at the start of the short-term colonic incubations, the test ingredients were added to nutritional medium containing basal nutrients present in the colon (e.g. host-derived glycans such as mucin). Three doses were tested per product. The nutritional medium used for this particular project was again supplemented with NaCl, MgSO4, CaCl2, hemin and bile salts, and with carbon sources glucose, starch and cellobiose. A blank, containing the same nutritional medium as that used for the product incubations, but without product addition, was included for each donor. In doing so, an assessment can be made of the background activity of the bacterial community, which results from fermentation of compounds in the nutritional medium. As a source of the colonic microbiota a fecal inoculum of two healthy adults was added. Incubations were performed for 48 h at 37′C, under shaking (90 rpm) and anaerobic conditions and protected from light. […] For the second set of in vitro experiments, two techniques were combined according to Vandeputte et al.

[3] = tested on: colonic microbiota (fecal inoculum of two healthy adults); test: Microbiome diversity, alpha and beta (second set)
Procedure: as §1

CC1=C(/C=C/C(C)=C/C=C/C(C)=C/C=C/C=C(C)/C=C/C=C(C)/C=C/C2=C(C)CCCC2(C)C)C(C)(C)CCC1 [β-carotene]
butyrate production ([1]; 0.2× dose, donor C): increase butyrate production
acetate production ([1]; 1× dose, both donors): increase acetate production
butyrate production ([1]; 1× dose, both donors): increase butyrate production
total SCFA production ([1]; 1× dose, both donors): increase total SCFA production
propionate production ([1]; 1× dose, donor C): increase propionate production
acetate production ([1]; 5× dose, both donors): increase acetate production
total SCFA production ([1]; 5× dose, both donors): increase total SCFA production
propionate production ([1]; 5× dose, donor C): increase propionate production
Bifidobacteriaceae relative abundance ([2]; 1× dose, both donors): increase Bifidobacteriaceae relative abundance
Clostridiaceae relative abundance ([2]; 1× dose, donor C): increase Clostridiaceae relative abundance
Prevotellaceae relative abundance ([2]; 1× dose, donor C): increase Prevotellaceae relative abundance
Coriobacteriaceae relative abundance ([2]; 1× dose, donor D): increase Coriobacteriaceae relative abundance
Faecalibacterium prausnitzii relative abundance ([2]; 1× dose, donor D): increase Faecalibacterium prausnitzii relative abundance
Veillonellaceae relative abundance ([2]; 1× dose, donor D): increase Veillonellaceae relative abundance
Akkermansiaceae relative abundance ([2]; 5× dose, both donors): increase Akkermansiaceae relative abundance
Bifidobacteriaceae relative abundance ([2]; 5× dose, both donors): increase Bifidobacteriaceae relative abundance
Desulfovibrionaceae relative abundance ([2]; 5× dose, both donors): decrease Desulfovibrionaceae relative abundance
Eggerthellaceae relative abundance ([2]; 5× dose, both donors): increase Eggerthellaceae relative abundance
Barnesiellaceae relative abundance ([2]; 5× dose, donor D): increase Barnesiellaceae relative abundance
Coriobacteriaceae relative abundance ([2]; 5× dose, donor D): increase Coriobacteriaceae relative abundance
Faecalibacterium prausnitzii relative abundance ([2]; 5× dose, donor D): increase Faecalibacterium prausnitzii relative abundance
Veillonellaceae relative abundance ([2]; 5× dose, donor D): increase Veillonellaceae relative abundance
beta-diversity (Bray-Curtis distance to control) ([3]; 0.2× dose, donor D): increases beta-diversity
beta-diversity (Bray-Curtis distance to control) ([3]; 1× dose, both donors): increases beta-diversity
beta-diversity (Bray-Curtis distance to control) ([3]; 1× dose, donor D): increases beta-diversity
beta-diversity (Bray-Curtis distance to control) ([3]; 5× dose, both donors): increases beta-diversity

Calcium D-Pantothenate [vitamin B5]
propionate production ([1]; 0.2× dose, donor C): increase propionate production
branched SCFA production ([1]; 5× dose, both donors): decrease branched SCFA production
Akkermansiaceae relative abundance ([2]; 0.2× dose, donor D): increase Akkermansiaceae relative abundance
Faecalibacterium prausnitzii relative abundance ([2]; 0.2× dose, donor D): increase Faecalibacterium prausnitzii relative abundance
Veillonellaceae relative abundance ([2]; 0.2× dose, donor D): increase Veillonellaceae relative abundance
Erysipelotrichaceae relative abundance ([2]; 1× dose, donor D): increase Erysipelotrichaceae relative abundance
Faecalibacterium prausnitzii relative abundance ([2]; 1× dose, donor D): increase Faecalibacterium prausnitzii relative abundance
Bifidobacteriaceae relative abundance ([2]; 5× dose, both donors): increase Bifidobacteriaceae relative abundance
Desulfovibrionaceae relative abundance ([2]; 5× dose, donor C): decrease Desulfovibrionaceae relative abundance
Faecalibacterium prausnitzii relative abundance ([2]; 5× dose, donor D): increase Faecalibacterium prausnitzii relative abundance
alpha-diversity (Shannon diversity index) ([3]; 0.2× dose, donor D): increases alpha-diversity
beta-diversity (Bray-Curtis distance to control) ([3]; 5× dose, both donors): increases beta-diversity
alpha-diversity (Shannon diversity index) ([3]; 5× dose, donor D): increases alpha-diversity
